Read-outs that look alike come from different tables or passages of the source.
How the values were obtained:
DU145 cells = assay: Proliferation assay, DU145 (Method 3); format: cell-based, human; conditions: 4 days, crystal violet, read-out: Inhibition of DU145 cell proliferation IC50
Experimental: (§1) Cultivated tumour cells (HeLa, human cervical tumour cells, ATCC CCL-2; NCI-H460, human non-small cell lung carcinoma cells, ATCC HTB-177; A2780, human ovarian carcinoma cells, ECACC #93112519; DU 145, hormone-independent human prostate carcinoma cells, ATCC HTB-81; HeLa-MaTu-ADR, multidrug-resistant human cervical carcinoma cells, EPO-GmbH Berlin; Caco-2, human colorectal carcinoma cells, ATCC HTB-37; B16F10, mouse melanoma cells, ATCC CRL-6475) were plated at a density of 5,000 cells/well (DU145, HeLa-MaTu-ADR), 3,000 cells/well (NCI-H460, HeLa), 2,500 cells/well (A2780), 1,500 cells/well (Caco-2), or 1,000 cells/well (B16F10) in a 96-well multititer plate in 200 μL of their respective growth medium supplemented 10% fetal calf serum. After 24 hours, the cells of one plate (zero-point plate) were stained with crystal violet (see below), while the medium of the other plates was replaced by fresh culture medium (200 μl), to which the test substances were added in various concentrations (0 μM, as well as in the range of 0.001-10 μM; the final concentration of the solvent dimethyl sulfoxide was 0.5%). The cells were incubated for 4 days in the presence of test substances. Cell proliferation was determined by staining the cells with crystal violet: the cells were fixed by adding 20 μl/measuring point of an 11% glutaric aldehyde solution for 15 minutes at room temperature. After three washing cycles of the fixed cells with water, the plates were dried at room temperature. The cells were stained by adding 100 μl/measuring point of a 0.1% crystal violet solution (pH 3.0). After three washing cycles of the stained cells with water, the plates were dried at room temperature. The dye was dissolved by adding 100 μl/measuring point of a 10% acetic acid solution. The extinction was determined by photometry at a wavelength of 595 nm. The change of cell number, in percent, was calculated by normalization of the measured values to the extinction values of the zero-point plate (=0%) and the extinction of the untreated (0 μm) cells (=100%). The IC50 values (inhibitory concentration at 50% of maximal effect) were determined by means of a 4 parameter fit.

Caco-2 cells = assay: Proliferation assay, Caco-2 (Method 3); format: cell-based, human; conditions: 4 days, crystal violet, read-out: Inhibition of Caco-2 cell proliferation IC50
Experimental: as §1

B16F10 cells = assay: Proliferation assay, B16F10 (Method 3); format: cell-based, mouse; conditions: 4 days, crystal violet, read-out: Inhibition of B16F10 cell proliferation IC50
Experimental: as §1

HeLa-MaTu-ADR cells = assay: Proliferation assay, HeLa-MaTu-ADR (Method 3); format: cell-based, human; conditions: 4 days, crystal violet, read-out: Inhibition of HeLa-MaTu-ADR cell proliferation IC50
Experimental: as §1

CDK2/CycE = target: T1, CDK2/CycE (Homo sapiens, UniProt P24941); assay: CDK2/CycE high ATP kinase assay (Method 2b); format: biochemical; conditions: 2 mM ATP
T1 construct: GST; purchased ProQinase GmbH (Freiburg, Germany); host or cells: insect cells (Sf9)
Experimental: 2b. CDK2/CycE High ATP Kinase Assay:
CDK2/CycE-inhibitory activity of compounds of the present invention at 2 mM adenosine-tri-phosphate (ATP) was quantified employing the CDK2/CycE TR-FRET (TR-FRET=Time Resolved Fluorescence Energy Transfer) assay as described in the following paragraphs.
Recombinant fusion proteins of GST and human CDK2 and of GST and human CycE, expressed in insect cells (Sf9) and purified by Glutathion-Sepharose affinity chromatography, were purchase from ProQinase GmbH (Freiburg, Germany) As substrate for the kinase reaction biotinylated peptide biotin-Ttds-YISPLKSPYKISEG (C-terminus in amid form) was used which can be purchased e.g. form the company JERINI peptide technologies (Berlin, Germany).
For the assay 50 nl of a 100 fold concentrated solution of the test compound in DMSO was pipetted into a black low volume 384 well microtiter plate (Greiner Bio-One, Frickenhausen, Germany), 2 μl of a solution of CDK2/CycE in aqueous assay buffer [50 mM Tris/HCl pH 8.0, 10 mM MgCl2, 1.0 mM dithiothreitol, 0.1 mM sodium ortho-vanadate, 0.01% (v/v) Nonidet-P40 (Sigma)] were added and the mixture was incubated for 15 min at 22° C. to allow pre-binding of the test compounds to the enzyme before the start of the kinase reaction. Then the kinase reaction was started by the addition of 3 μl of a solution ATP (3.33 mM=>final conc. in the 5 μl assay volume is 2 mM) and substrate (1.25 μM=>final conc. in the 5 μl assay volume is 0.75 μM) in assay buffer and the resulting mixture was incubated for a reaction time of 25 min at 22° C. The concentration of CDK2/CycE was adjusted depending of the activity of the enzyme lot and was chosen appropriate to have the assay in the linear range, typical concentrations were in the range of 15 ng/ml. The reaction was stopped by the addition of 5 μl of a solution of TR-FRET detection reagents (0.2 μM streptavidine-XL665 [Cisbio Bioassays, Codolet, France] and 1 nM anti-RB(pSer807/pSer811)-antibody from BD Pharmingen [#558389] and 1.2 nM LANCE EU-W1024 labeled anti-mouse IgG antibody [Perkin-Elmer, product no. AD0077, as an alternative a Terbium-cryptate-labeled anti-mouse IgG antibody from Cisbio Bioassays can be used]) in an aqueous EDTA-solution (100 mM EDTA, 0.2% (w/v) bovine serum albumin in 100 mM HEPES/NaOH pH 7.0).
The resulting mixture was incubated 1 h at 22° C. to allow the formation of complex between the phosphorylated biotinylated peptide and the detection reagents. Subsequently the amount of phosphorylated substrate was evaluated by measurement of the resonance energy transfer from the Eu-chelate to the streptavidine-XL. Therefore, the fluorescence emissions at 620 nm and 665 nm after excitation at 350 nm were measured in a TR-FRET reader, e.g. a Rubystar (BMG Labtechnologies, Offenburg, Germany) or a Viewlux (Perkin-Elmer). The ratio of the emissions at 665 nm and at […] was taken as the measure for the amount of phosphorylated substrate. The data were normalised (enzyme reaction without inhibitor=0% inhibition, all other assay components but no enzyme=100% inhibition).

| SMILES | IC50 (DU145 cells; Homo sapiens, DU-145, 96 h) | IC50 (Caco-2 cells; Homo sapiens, Caco-2, 96 h) | IC50 (B16F10 cells; Mus musculus, B16-F10, 96 h) | IC50 (HeLa-MaTu-ADR cells; Homo sapiens, 96 h) | IC50 (CDK2/CycE) | IC50 (DU145 cells) | IC50 (Caco-2 cells) | IC50 (B16F10 cells) | IC50 (HeLa-MaTu-ADR cells) |
| --- | --- | --- | --- | --- | --- | --- | --- | --- | --- |
| COc1cc(F)ccc1-c1cc(Nc2cc(CS(C)(=N)=O)cc(C)n2)ncn1 (single isomer, unassigned) [Example 8, 6-(4-Fluoro-2-methoxyphenyl)-N-{6-methyl-4-[(S-methylsulfonimidoyl)methyl]pyridin-2-yl}pyrimidin-4-amine] | 179 nM | 246 nM | 284 nM | 112 nM | 6330 nM |  |  |  |  |
| COc1cc(F)ccc1-c1cc(Nc2cc(CS(C)(=N)=O)ccn2)ncn1 (single isomer, unassigned) [Example 2, 6-(4-Fluoro-2-methoxyphenyl)-N-{4-[(S-methylsulfonimidoyl)methyl]pyridin-2-yl}pyrimidin-4-amine] |  |  |  |  | 1540 nM |  |  |  |  |
| COc1cc(F)ccc1-c1cc(Nc2cc(CS(C)(=N)=O)cc(Cl)n2)ncn1 (single isomer, unassigned) [Example 6, N-{6-Chloro-4-[(S-methylsulfonimidoyl)methyl]pyridin-2-yl}-6-(4-fluoro-2-methoxyphenyl)pyrimidin-4-amine] |  |  |  |  | 1820 nM | 110 nM | 177 nM | 123 nM | 111 nM |
| COc1cc(F)ccc1-c1cc(Nc2cc(CS(C)(=N)=O)cc(Cl)n2)ncn1 (racemic) [Example 4, (rac)-N-{6-Chloro-4-[(S-methylsulfonimidoyl)methyl]pyridin-2-yl}-6-(4-fluoro-2-methoxyphenyl)pyrimidin-4-amine] | 77 nM | 145 nM | 215 nM | 97 nM | 1130 nM |  |  |  |  |
| COc1cc(F)ccc1-c1cc(Nc2cc(CS(C)(=N)=O)cc(Cl)n2)ncn1 (single isomer, unassigned) [Example 5, N-{6-Chloro-4-[(S-methylsulfonimidoyl)methyl]pyridin-2-yl}-6-(4-fluoro-2-methoxyphenyl)pyrimidin-4-amine] | 105 nM | 166 nM | 122 nM | 109 nM | 1420 nM |  |  |  |  |
| COc1cc(F)ccc1-c1cc(Nc2cc(CS(C)(=N)=O)ccn2)ncn1 (single isomer, unassigned) [Example 3, 6-(4-Fluoro-2-methoxyphenyl)-N-{4-[(S-methylsulfonimidoyl)methyl]pyridin-2-yl}pyrimidin-4-amine] |  |  |  |  | 1040 nM |  |  |  |  |
| COc1cc(F)ccc1-c1cc(Nc2cc(CS(C)(=N)=O)cc(C(F)(F)F)n2)ncn1 (racemic) [Example 10, (rac)-6-(4-Fluoro-2-methoxyphenyl)-N-{4-[(S-methylsulfonimidoyl)methyl]-6-(trifluoromethyl)pyridin-2-yl}pyrimidin-4-amine] | 88 nM | 116 nM | 100 nM | 104 nM | 797 nM |  |  |  |  |
| COc1cc(F)ccc1-c1cc(Nc2cc(CS(C)(=N)=O)cc(C)n2)ncn1 (single isomer, unassigned) [Example 9, 6-(4-Fluoro-2-methoxyphenyl)-N-{6-methyl-4-[(S-methylsulfonimidoyl)methyl]pyridin-2-yl}pyrimidin-4-amine] |  |  |  |  | 4400 nM | 126 nM | 212 nM | 205 nM | 178 nM |
| COc1cc(F)ccc1-c1cc(Nc2cc(CS(C)(=N)=O)cc(C)n2)ncn1 (racemic) [Example 7, (rac)-6-(4-Fluoro-2-methoxyphenyl)-N-{6-methyl-4-[(S-methylsulfonimidoyl)methyl]pyridin-2-yl}pyrimidin-4-amine] | 121 nM | 230 nM | 216 nM | 217 nM | 3630 nM |  |  |  |  |
| COc1cc(F)ccc1-c1cc(Nc2cc(CS(C)(=N)=O)ccn2)ncn1 (racemic) [Example 1, (rac)-6-(4-Fluoro-2-methoxyphenyl)-N-{4-[(S-methylsulfonimidoyl)methyl]pyridin-2-yl}pyrimidin-4-amine] | 309 nM | 537 nM | 488 nM | 335 nM | 1510 nM |  |  |  |  |
